System: 282377-053-R-J1-PDC complex spheroid viability
Test: Anticancer human tumor 282377-053-R-J1-PDC patient-derived colon adenocarcinoma cell line growth inhibition [POLQ]
Conditions: for IC50: curve of first compound; for viability, T/C: stronger effect = lower value
Outline: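 Patient-derived tumour cells were co-cultured with HUVEC and mesenchymal stem cells as multicellular spheroids at 37 °C. They were treated with POLQ inhibitors (novobiocin, ART-558, RP6685) alone or combined with other agents. Top concentrations were at or near clinical Cmax (otherwise 10 microM; SN-38 at 1 microM), decreasing in half-log steps.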

[1] = second compound 0.0316 µM, first compound 0.0316 µM
[2] = second compound 0.0316 µM, first compound 0.1 µM
[3] = second compound 0.0316 µM, first compound 0.316 µM
[4] = second compound 0.0316 µM, first compound 1 µM
[5] = second compound 0.0316 µM, first compound 3.16 µM
[6] = second compound 0.0316 µM, first compound 10 µM
[7] = second compound 0.1 µM, first compound 0.0316 µM
[8] = second compound 0.1 µM, first compound 0.1 µM
[9] = second compound 0.1 µM, first compound 0.316 µM
[10] = second compound 0.1 µM, first compound 1 µM
[11] = second compound 0.1 µM, first compound 3.16 µM
[12] = second compound 0.1 µM, first compound 10 µM
[13] = second compound 0.316 µM, first compound 0.0316 µM
[14] = second compound 0.316 µM, first compound 0.1 µM
[15] = second compound 0.316 µM, first compound 0.316 µM
[16] = second compound 0.316 µM, first compound 1 µM
[17] = second compound 0.316 µM, first compound 3.16 µM
[18] = second compound 0.316 µM, first compound 10 µM
[19] = second compound 1 µM, first compound 0.0316 µM
[20] = second compound 1 µM, first compound 0.1 µM
[21] = second compound 1 µM, first compound 0.316 µM
[22] = second compound 1 µM, first compound 1 µM
[23] = second compound 1 µM, first compound 3.16 µM
[24] = second compound 1 µM, first compound 10 µM
[25] = second compound 3.16 µM, first compound 0.0316 µM
[26] = second compound 3.16 µM, first compound 0.1 µM
[27] = second compound 3.16 µM, first compound 0.316 µM
[28] = second compound 3.16 µM, first compound 1 µM
[29] = second compound 3.16 µM, first compound 3.16 µM
[30] = second compound 3.16 µM, first compound 10 µM
[31] = second compound 10 µM, first compound 0.0316 µM
[32] = second compound 10 µM, first compound 0.1 µM
[33] = second compound 10 µM, first compound 0.316 µM
[34] = second compound 10 µM, first compound 1 µM
[35] = second compound 10 µM, first compound 3.16 µM
[36] = second compound 10 µM, first compound 10 µM
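Note: spheroids exposed to compounds for seven days.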
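Throughout, for viability, T/C: 100% = DMSO vehicle control viability.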

## C#Cc1c(F)ccc2cc(O)cc(-c3ncc4c(N5CC6CCC(C5)N6)nc(OCC56CCCN5CC(F)C6)nc4c3F)c12 (stereo unspecified) + Nc1ccc(C#CCN(C(=O)Cc2ncc(C(F)(F)F)cc2C(F)(F)F)c2ccc(F)cc2)nn1
Second compound 0.0316 µM
  IC50: > 10 µM
Second compound 0.1 µM
  IC50: > 10 µM
Second compound 0.316 µM
  IC50: > 10 µM
Second compound 1 µM
  IC50: > 10 µM
Second compound 3.16 µM
  IC50: > 10 µM
Second compound 10 µM
  IC50: > 10 µM
[1]
  viability, T/C: 101%
[2]
  viability, T/C: 114%
[3]
  viability, T/C: 91.2%
[4]
  viability, T/C: 97.5%
[5]
  viability, T/C: 99.8%
[6]
  viability, T/C: 84.8%
[7]
  viability, T/C: 99.8%
[8]
  viability, T/C: 108%
[9]
  viability, T/C: 83.5%
[10]
  viability, T/C: 116%
[11]
  viability, T/C: 99.5%
[12]
  viability, T/C: 79.6%
[13]
  viability, T/C: 97.1%
[14]
  viability, T/C: 106%
[15]
  viability, T/C: 94.9%
[16]
  viability, T/C: 85.2%
[17]
  viability, T/C: 118%
[18]
  viability, T/C: 110%
[19]
  viability, T/C: 93%
[20]
  viability, T/C: 121%
[21]
  viability, T/C: 105%
[22]
  viability, T/C: 92.7%
[23]
  viability, T/C: 94.7%
[24]
  viability, T/C: 96.8%
[25]
  viability, T/C: 121%
[26]
  viability, T/C: 120%
[27]
  viability, T/C: 94%
[28]
  viability, T/C: 107%
[29]
  viability, T/C: 90.2%
[30]
  viability, T/C: 96.3%
[31]
  viability, T/C: 117%
[32]
  viability, T/C: 107%
[33]
  viability, T/C: 109%
[34]
  viability, T/C: 112%
[35]
  viability, T/C: 90.8%
[36]
  viability, T/C: 119%

## CC1COCCN1c1cc(C2(O)CC3CCC(C2)O3)c2cnn(-c3ccn[nH]3)c2n1 (stereo unspecified) + Nc1ccc(C#CCN(C(=O)Cc2ncc(C(F)(F)F)cc2C(F)(F)F)c2ccc(F)cc2)nn1
Second compound 0.0316 µM
  IC50: 1.98 µM
Second compound 0.1 µM
  IC50: 0.588 µM
Second compound 0.316 µM
  IC50: 1.29 µM
Second compound 1 µM
  IC50: 0.73 µM
Second compound 3.16 µM
  IC50: 1.18 µM
Second compound 10 µM
  IC50: 1.08 µM
[1]
  viability, T/C: 83.8%
[2]
  viability, T/C: 75.4%
[3]
  viability, T/C: 67.5%
[4]
  viability, T/C: 53.3%
[5]
  viability, T/C: 47.8%
[6]
  viability, T/C: 40.5%
[7]
  viability, T/C: 89.3%
[8]
  viability, T/C: 89.3%
[9]
  viability, T/C: 57.3%
[10]
  viability, T/C: 48.7%
[11]
  viability, T/C: 43.3%
[12]
  viability, T/C: 36.4%
[13]
  viability, T/C: 107%
[14]
  viability, T/C: 84.6%
[15]
  viability, T/C: 63.9%
[16]
  viability, T/C: 50.6%
[17]
  viability, T/C: 46.5%
[18]
  viability, T/C: 36.3%
[19]
  viability, T/C: 97.6%
[20]
  viability, T/C: 83.9%
[21]
  viability, T/C: 71%
[22]
  viability, T/C: 38.3%
[23]
  viability, T/C: 44.4%
[24]
  viability, T/C: 43.6%
[25]
  viability, T/C: 92.3%
[26]
  viability, T/C: 75.7%
[27]
  viability, T/C: 65.6%
[28]
  viability, T/C: 47.6%
[29]
  viability, T/C: 45.9%
[30]
  viability, T/C: 40.8%
[31]
  viability, T/C: 97.3%
[32]
  viability, T/C: 77.2%
[33]
  viability, T/C: 62.8%
[34]
  viability, T/C: 49.3%
[35]
  viability, T/C: 44%
[36]
  viability, T/C: 40.1%

## O=C(Nc1ccc(O)c(NS(=O)(=O)c2ccc(F)cc2)c1)c1ccc(-c2ccccc2)cc1 + Nc1ccc(C#CCN(C(=O)Cc2ncc(C(F)(F)F)cc2C(F)(F)F)c2ccc(F)cc2)nn1
Second compound 0.0316 µM
  IC50: > 10 µM
Second compound 0.1 µM
  IC50: > 10 µM
Second compound 0.316 µM
  IC50: > 10 µM
Second compound 1 µM
  IC50: > 10 µM
Second compound 3.16 µM
  IC50: > 10 µM
Second compound 10 µM
  IC50: > 10 µM
[1]
  viability, T/C: 92.8%
[2]
  viability, T/C: 115%
[3]
  viability, T/C: 98.1%
[4]
  viability, T/C: 102%
[5]
  viability, T/C: 97.9%
[6]
  viability, T/C: 107%
[7]
  viability, T/C: 93.1%
[8]
  viability, T/C: 107%
[9]
  viability, T/C: 100%
[10]
  viability, T/C: 97.2%
[11]
  viability, T/C: 104%
[12]
  viability, T/C: 103%
[13]
  viability, T/C: 96.9%
[14]
  viability, T/C: 101%
[15]
  viability, T/C: 112%
[16]
  viability, T/C: 95.4%
[17]
  viability, T/C: 100%
[18]
  viability, T/C: 99.8%
[19]
  viability, T/C: 96.5%
[20]
  viability, T/C: 95.5%
[21]
  viability, T/C: 98.7%
[22]
  viability, T/C: 109%
[23]
  viability, T/C: 87.1%
[24]
  viability, T/C: 100%
[25]
  viability, T/C: 113%
[26]
  viability, T/C: 113%
[27]
  viability, T/C: 103%
[28]
  viability, T/C: 100%
[29]
  viability, T/C: 109%
[30]
  viability, T/C: 117%
[31]
  viability, T/C: 124%
[32]
  viability, T/C: 108%
[33]
  viability, T/C: 109%
[34]
  viability, T/C: 133%
[35]
  viability, T/C: 110%
[36]
  viability, T/C: 139%
